Results: PubChem BioAssay AID1845204 (Molecular Pharmacology Branch, DTP, NCI, 2023)

System: HSSY-II tumor spheroid viability
Experiment: Anticancer human tumor HSSY-II cell line growth inhibition;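 further: spheroids exposed to compounds for seven days before reading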;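 on viability, T/C: percent of DMSO vehicle control viability so 100% = untreated level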
Details: spheroids with HUVEC and MSC; for IC50: curve of first compound; for viability, T/C: stronger effect = lower value
Outline: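 Complex tumor spheroids combined malignant cells with endothelial cells and mesenchymal stem cells. DNA-damaging drugs and DNA repair inhibitors were tested alone and in combination, at half-log dilutions down from clinical Cmax (top 10 microM if Cmax unknown), 0.25% DMSO final.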

[2H]c1nc(C)nc([2H])c1-c1cc(NC[C@@H](C)c2cccc3c(C(=O)NC)ccnc23)ncn1 + CC[C@@]1(O)C(=O)OCc2c1cc1n(c2=O)Cc2cc3c(CN(C)C)c(O)ccc3nc2-1
IC50 (second compound 0.003 µM): > 10000 nM | IC50 (second compound 0.00949 µM): > 10000 nM | IC50 (second compound 0.03 µM): < 31.6 nM | IC50 (second compound 0.0949 µM): < 31.6 nM | IC50 (second compound 0.3 µM): < 31.6 nM | viability, T/C (second compound 0.003 µM, first compound 0.0316 µM): 89.6% | viability, T/C (second compound 0.003 µM, first compound 0.1 µM): 93.9% | viability, T/C (second compound 0.003 µM, first compound 0.316 µM): 90.5% | viability, T/C (second compound 0.003 µM, first compound 1 µM): 96.5% | viability, T/C (second compound 0.003 µM, first compound 3.16 µM): 87.9% | viability, T/C (second compound 0.003 µM, first compound 10 µM): 78.7% | viability, T/C (second compound 0.00949 µM, first compound 0.0316 µM): 62% | viability, T/C (second compound 0.00949 µM, first compound 0.1 µM): 64.5% | viability, T/C (second compound 0.00949 µM, first compound 0.316 µM): 61.5% | viability, T/C (second compound 0.00949 µM, first compound 1 µM): 63.9% | viability, T/C (second compound 0.00949 µM, first compound 3.16 µM): 58% | viability, T/C (second compound 0.00949 µM, first compound 10 µM): 53.9% | viability, T/C (second compound 0.03 µM, first compound 0.0316 µM): 14.2% | viability, T/C (second compound 0.03 µM, first compound 0.1 µM): 13.6% | viability, T/C (second compound 0.03 µM, first compound 0.316 µM): 11.1% | viability, T/C (second compound 0.03 µM, first compound 1 µM): 13.1% | viability, T/C (second compound 0.03 µM, first compound 3.16 µM): 14% | viability, T/C (second compound 0.03 µM, first compound 10 µM): 16.3% | viability, T/C (second compound 0.0949 µM, first compound 0.0316 µM): 11% | viability, T/C (second compound 0.0949 µM, first compound 0.1 µM): 11.4% | viability, T/C (second compound 0.0949 µM, first compound 0.316 µM): 9.48% | viability, T/C (second compound 0.0949 µM, first compound 1 µM): 10.8% | viability, T/C (second compound 0.0949 µM, first compound 3.16 µM): 11.6% | viability, T/C (second compound 0.0949 µM, first compound 10 µM): 12% | viability, T/C (second compound 0.3 µM, first compound 0.0316 µM): 6.74% | viability, T/C (second compound 0.3 µM, first compound 0.1 µM): 7.54% | viability, T/C (second compound 0.3 µM, first compound 0.316 µM): 7.42% | viability, T/C (second compound 0.3 µM, first compound 1 µM): 6.87% | viability, T/C (second compound 0.3 µM, first compound 3.16 µM): 7.23% | viability, T/C (second compound 0.3 µM, first compound 10 µM): 8.83%

Cn1ncnc1[C@H]1c2n[nH]c(=O)c3cc(F)cc(c23)N[C@@H]1c1ccc(F)cc1 + COc1cc2c(cc1O)CCNC21CSC2c3c(OC(C)=O)c(C)c4c(c3C(COC1=O)N1C(O)C3Cc5cc(C)c(OC)c(O)c5C(C21)N3C)OCO4
IC50 (second compound 30 pM): 36.7 nM | IC50 (second compound 94.9 pM): < 9.49 nM | IC50 (second compound 0.0003 µM): < 9.49 nM | IC50 (second compound 0.000949 µM): < 9.49 nM | IC50 (second compound 0.003 µM): < 9.49 nM | viability, T/C (second compound 30 pM, first compound 0.00949 µM): 65.3% | viability, T/C (second compound 30 pM, first compound 0.03 µM): 53.8% | viability, T/C (second compound 30 pM, first compound 0.0949 µM): 32% | viability, T/C (second compound 30 pM, first compound 0.3 µM): 14.4% | viability, T/C (second compound 30 pM, first compound 0.949 µM): 9.09% | viability, T/C (second compound 30 pM, first compound 3 µM): 6.64% | viability, T/C (second compound 94.9 pM, first compound 0.00949 µM): 32.6% | viability, T/C (second compound 94.9 pM, first compound 0.03 µM): 25.6% | viability, T/C (second compound 94.9 pM, first compound 0.0949 µM): 15.6% | viability, T/C (second compound 94.9 pM, first compound 0.3 µM): 10.5% | viability, T/C (second compound 94.9 pM, first compound 0.949 µM): 8.55% | viability, T/C (second compound 94.9 pM, first compound 3 µM): 6.28% | viability, T/C (second compound 0.0003 µM, first compound 0.00949 µM): 8.74% | viability, T/C (second compound 0.0003 µM, first compound 0.03 µM): 9.03% | viability, T/C (second compound 0.0003 µM, first compound 0.0949 µM): 8.23% | viability, T/C (second compound 0.0003 µM, first compound 0.3 µM): 7.73% | viability, T/C (second compound 0.0003 µM, first compound 0.949 µM): 6.35% | viability, T/C (second compound 0.0003 µM, first compound 3 µM): 3.6% | viability, T/C (second compound 0.000949 µM, first compound 0.00949 µM): 2.25% | viability, T/C (second compound 0.000949 µM, first compound 0.03 µM): 1.71% | viability, T/C (second compound 0.000949 µM, first compound 0.0949 µM): 1.81% | viability, T/C (second compound 0.000949 µM, first compound 0.3 µM): 2.07% | viability, T/C (second compound 0.000949 µM, first compound 0.949 µM): 0.53% | viability, T/C (second compound 0.000949 µM, first compound 3 µM): 0.15% | viability, T/C (second compound 0.003 µM, first compound 0.00949 µM): 0.2% | viability, T/C (second compound 0.003 µM, first compound 0.03 µM): 0.25% | viability, T/C (second compound 0.003 µM, first compound 0.0949 µM): 0.2% | viability, T/C (second compound 0.003 µM, first compound 0.3 µM): 0.15% | viability, T/C (second compound 0.003 µM, first compound 0.949 µM): 0.14% | viability, T/C (second compound 0.003 µM, first compound 3 µM): 0.26%
